Patent publication US8835377B2, “Oral delivery of peptide pharmaceutical compositions” (UGP Therapeutics, Inc., priority 2004, dated 2014)

Assay: Pharmacokinetics after oral capsules (sCT plus Dmt-DALDA with citric acid and lauroyl carnitine), non-enteric coated or enteric coated, in fasted beagle dogs (plasma; ELISA for sCT, HPLC-MS for Dmt-DALDA)
Format: in vivo
Procedure: A second series of tests was carried out, as noted above, using beagle dogs. […] In the experiments represented in FIGS. 2A and 2B, size 00 […] capsules were each filled with 758 mg of a powdered blend consisting of citric acid (643 mg), lauroyl carnitine (66 mg), talc (33 mg), salmon calcitonin (sCT) (13 mg) and Dmt-DALDA (2.4 mg). Half of the capsules were coated with an enteric coating solution of L30D-55, while the remaining 50% of the capsules were not coated. Four fasted dogs were each given 1 uncoated capsule, and 2 weeks later they were each given an enteric coated capsule. After administration of each capsule, samples of blood were taken at 15 minute intervals from an indwelling catheter for up to 4 hours. The blood samples were centrifuged and the resulting plasma supernatants were stored frozen at −20° C. The plasma samples were subsequently analyzed for sCT by a direct ELISA, and for Dmt-DALDA by HPLC-mass spectrometry performed as set forth in Wan, H. and Desiderio, D., Quantitation of [DMT^1] DALDA in ovine plasma by on-line liquid chromatography/quadrapole time-of-flight mass spectrometry, Rapid Communications in Mass Spectrometry, 2003; 17, 538-546, the contents of which are incorporated herein by reference.
The results summarized in FIGS. 2A and 2B as plasma peptide concentration normalized to a 1 mg dose as a function of time relative to the average Tmax, (i.e., the time at which the maximum amount of peptide was detected) indicate that both peptides, i.e., sCT and Dmt-DALDA, were detected in dogs given uncoated or enteric coated capsules. […] Table DI (below) sets forth the values upon which the curves in FIGS. 2A and 2B are based. The results are summarized in the tables as plasma peptide concentration normalized to a 1 mg dose as a function of time. Table III, moreover, provides the standard deviations for the data obtained regarding each of the test dogs, which standard deviations are also indicated in FIGS. 2A and 2B.
Table IV (below) summarizes the pharmacokinetic parameters in dogs of orally administered sCT and Dmt-DALDA when administered in non-enteric coated versus enteric coated capsules. Peptide was not detected from 1 dog in each group due to (a) Dog 3 vomiting the uncoated capsule and (b) delayed gastric emptying in Dog 2 provided with an enteric coated capsule. Cmax and AUC are as defined with regard to Table H above.

SMILES: Cc1cc(O)cc(C)c1C[C@H](N)C(=O)N[C@H](CCCNC(=N)N)C(=O)N[C@@H](Cc1ccccc1)C(=O)N[C@@H](CCCCN)C(N)=O [Dmt-DALDA, H-2,6-dimethyltyrosine-D-Arginine-Phenylalanine-Lysine-NH2]
- plasma peptide concentration normalized to a 1 mg dose (enteric coated capsule, Dog 3, 45 min): 0 pg/mL
- plasma peptide concentration normalized to a 1 mg dose (enteric coated capsule, Dog 3, 60 min): 0 pg/mL
- plasma peptide concentration normalized to a 1 mg dose (enteric coated capsule, Dog 3, 75 min): 0 pg/mL
- plasma peptide concentration normalized to a 1 mg dose (enteric coated capsule, Dog 3, 90 min): 0 pg/mL
- plasma peptide concentration normalized to a 1 mg dose (enteric coated capsule, Dog 3, 105 min): 0 pg/mL
- plasma peptide concentration normalized to a 1 mg dose (enteric coated capsule, Dog 3, 120 min): 0 pg/mL
- plasma peptide concentration normalized to a 1 mg dose (enteric coated capsule, Dog 3, 135 min): 21494 pg/mL
- plasma peptide concentration normalized to a 1 mg dose (enteric coated capsule, Dog 3, 150 min): 19378 pg/mL
- plasma peptide concentration normalized to a 1 mg dose (enteric coated capsule, Dog 3, 165 min): 12697 pg/mL
- plasma peptide concentration normalized to a 1 mg dose (enteric coated capsule, Dog 3, 180 min): 9100 pg/mL
- plasma peptide concentration normalized to a 1 mg dose (enteric coated capsule, Dog 3, 195 min): 4876 pg/mL
- plasma peptide concentration normalized to a 1 mg dose (enteric coated capsule, Dog 4, 0 min): 0 pg/mL
- plasma peptide concentration normalized to a 1 mg dose (enteric coated capsule, Dog 4, 15 min): 0 pg/mL
- plasma peptide concentration normalized to a 1 mg dose (enteric coated capsule, Dog 4, 30 min): 0 pg/mL
- plasma peptide concentration normalized to a 1 mg dose (enteric coated capsule, Dog 4, 45 min): 0 pg/mL
- plasma peptide concentration normalized to a 1 mg dose (enteric coated capsule, Dog 4, 60 min): 0 pg/mL
- plasma peptide concentration normalized to a 1 mg dose (enteric coated capsule, Dog 4, 75 min): 0 pg/mL
- plasma peptide concentration normalized to a 1 mg dose (enteric coated capsule, Dog 4, 90 min): 0 pg/mL
- plasma peptide concentration normalized to a 1 mg dose (enteric coated capsule, Dog 4, 105 min): 4577 pg/mL
- plasma peptide concentration normalized to a 1 mg dose (enteric coated capsule, Dog 4, 120 min): 12116 pg/mL
- plasma peptide concentration normalized to a 1 mg dose (enteric coated capsule, Dog 4, 135 min): 10207 pg/mL
- plasma peptide concentration normalized to a 1 mg dose (enteric coated capsule, Dog 4, 150 min): 6307 pg/mL
- plasma peptide concentration normalized to a 1 mg dose (enteric coated capsule, Dog 4, 165 min): 5158 pg/mL
- plasma peptide concentration normalized to a 1 mg dose (enteric coated capsule, Dog 4, 180 min): 3884 pg/mL
- plasma peptide concentration normalized to a 1 mg dose (enteric coated capsule, Dog 4, 195 min): 2896 pg/mL
- plasma peptide concentration normalized to a 1 mg dose (non-enteric coated capsule, Dog 1, 45 min): 5104 pg/mL
- plasma peptide concentration normalized to a 1 mg dose (non-enteric coated capsule, Dog 1, 60 min): 4066 pg/mL
- plasma peptide concentration normalized to a 1 mg dose (non-enteric coated capsule, Dog 1, 75 min): 2407 pg/mL
- plasma peptide concentration normalized to a 1 mg dose (non-enteric coated capsule, Dog 1, 90 min): 2780 pg/mL
- plasma peptide concentration normalized to a 1 mg dose (non-enteric coated capsule, Dog 1, 105 min): 1938 pg/mL
- plasma peptide concentration normalized to a 1 mg dose (non-enteric coated capsule, Dog 1, 120 min): 1627 pg/mL
- plasma peptide concentration normalized to a 1 mg dose (non-enteric coated capsule, Dog 1, 135 min): 1158 pg/mL
- plasma peptide concentration normalized to a 1 mg dose (non-enteric coated capsule, Dog 1, 150 min): 830 pg/mL
- plasma peptide concentration normalized to a 1 mg dose (non-enteric coated capsule, Dog 1, 165 min): 913 pg/mL
- plasma peptide concentration normalized to a 1 mg dose (non-enteric coated capsule, Dog 1, 180 min): 705 pg/mL
- plasma peptide concentration normalized to a 1 mg dose (non-enteric coated capsule, Dog 1, 195 min): 581 pg/mL
- plasma peptide concentration normalized to a 1 mg dose (non-enteric coated capsule, Dog 1, 210 min): 544 pg/mL
- plasma peptide concentration normalized to a 1 mg dose (non-enteric coated capsule, Dog 1, 225 min): 436 pg/mL
- plasma peptide concentration normalized to a 1 mg dose (non-enteric coated capsule, Dog 1, 240 min): 402 pg/mL
- plasma peptide concentration normalized to a 1 mg dose (non-enteric coated capsule, Dog 2, 45 min): 5602 pg/mL
- plasma peptide concentration normalized to a 1 mg dose (non-enteric coated capsule, Dog 2, 60 min): 5726 pg/mL
- plasma peptide concentration normalized to a 1 mg dose (non-enteric coated capsule, Dog 2, 75 min): 4523 pg/mL
- plasma peptide concentration normalized to a 1 mg dose (non-enteric coated capsule, Dog 2, 90 min): 3568 pg/mL
- plasma peptide concentration normalized to a 1 mg dose (non-enteric coated capsule, Dog 2, 105 min): 3444 pg/mL
- plasma peptide concentration normalized to a 1 mg dose (non-enteric coated capsule, Dog 2, 120 min): 2614 pg/mL
- plasma peptide concentration normalized to a 1 mg dose (non-enteric coated capsule, Dog 2, 135 min): 2697 pg/mL
- plasma peptide concentration normalized to a 1 mg dose (non-enteric coated capsule, Dog 2, 150 min): 2407 pg/mL
- plasma peptide concentration normalized to a 1 mg dose (non-enteric coated capsule, Dog 2, 165 min): 2531 pg/mL
- plasma peptide concentration normalized to a 1 mg dose (non-enteric coated capsule, Dog 2, 180 min): 2075 pg/mL
- plasma peptide concentration normalized to a 1 mg dose (non-enteric coated capsule, Dog 2, 195 min): 1328 pg/mL
- plasma peptide concentration normalized to a 1 mg dose (non-enteric coated capsule, Dog 2, 210 min): 1867 pg/mL
- plasma peptide concentration normalized to a 1 mg dose (non-enteric coated capsule, Dog 2, 225 min): 1535 pg/mL
- plasma peptide concentration normalized to a 1 mg dose (non-enteric coated capsule, Dog 2, 240 min): 1494 pg/mL
- plasma peptide concentration normalized to a 1 mg dose (non-enteric coated capsule, Dog 4, 45 min): 5788 pg/mL
- plasma peptide concentration normalized to a 1 mg dose (non-enteric coated capsule, Dog 4, 60 min): 4481 pg/mL
- plasma peptide concentration normalized to a 1 mg dose (non-enteric coated capsule, Dog 4, 75 min): 2934 pg/mL
- plasma peptide concentration normalized to a 1 mg dose (non-enteric coated capsule, Dog 4, 90 min): 2382 pg/mL
- plasma peptide concentration normalized to a 1 mg dose (non-enteric coated capsule, Dog 4, 105 min): 3054 pg/mL
- plasma peptide concentration normalized to a 1 mg dose (non-enteric coated capsule, Dog 4, 120 min): 1759 pg/mL
- plasma peptide concentration normalized to a 1 mg dose (non-enteric coated capsule, Dog 4, 135 min): 1627 pg/mL
- plasma peptide concentration normalized to a 1 mg dose (non-enteric coated capsule, Dog 4, 150 min): 1544 pg/mL
- plasma peptide concentration normalized to a 1 mg dose (non-enteric coated capsule, Dog 4, 165 min): 1324 pg/mL
- plasma peptide concentration normalized to a 1 mg dose (non-enteric coated capsule, Dog 4, 180 min): 1191 pg/mL
- plasma peptide concentration normalized to a 1 mg dose (non-enteric coated capsule, Dog 4, 195 min): 851 pg/mL
- plasma peptide concentration normalized to a 1 mg dose (non-enteric coated capsule, Dog 4, 210 min): 722 pg/mL
- plasma peptide concentration normalized to a 1 mg dose (non-enteric coated capsule, Dog 4, 225 min): 672 pg/mL
- plasma peptide concentration normalized to a 1 mg dose (non-enteric coated capsule, Dog 4, 240 min): 556 pg/mL
